Measurements: US11701361B2, “p110-delta inhibitors treat and prevent autoimmunity while sparing the ability to mount an immune response to exogenous immunogens” (THE REGENTS OF THE UNIVERSITY OF COLORADO, priority 2018, dated 2023)

Key:
[1] = test system: PTEN^−/+×SHIP-1^−/+ B cells; experiment: adoptive transfer of autoreactive PTEN-/+ x SHIP-1-/+ Ars/A1 B cells, loss of anergy; format: in vivo, mouse; conditions: for number of autoreactive ASCs/spleen: day 14
From the text: Except where otherwise indicated, 6-16 week old mice were used in all experiments. Both male and female mice were used, but experiments were sex matched and both sexes gave identical results, with the exception of only female mice being used in the VH125.NOD experiments as female mice develop accelerated disease. hCD20-TamCre animals (Khalil, et al. Science 336: 1178-81) were intercrossed with mice carrying the rosa26-flox-STOP-YFP allele (Srinivas, et al., BMC Dev. Biol. 1:4), generating mice in which YFP is expressed in B cells upon Cre activation. These mice were crossed with Ars/A1 (Benschop, et al., Immunity 14: 33-43) transgenic mice to generate hCD20-TamCre×rosa26-flox-STOP-YFP×Ars/A1 mice. B cells from these mice will be referred to as WT Ars/A1. These mice were also crossed with SHIP-1^flox/flox mice (Karlsson, et al. J Exp Med 198: 333-40). hCD20-TamCre×rosa26-flox-STOP-YFP×Ars/A1 mice were also crossed to PTEN^flox/flox mice (Anzelon, et al., Nat Immunol 4: 287-94) and SHP-1^flox/flox mice to generate mice in which SHIP-1, PTEN and SHP-1 deletion can be induced in anergic B cells. hCD20-TamCre×rosa26-flox-STOP-YFP×PTEN^flox/flox×Ars/A1 were crossed to hCD20-TamCre×rosa26-flox-STOP-YFP×SHIP-1^flox/flox×Ars/A1 to generate hCD20-TamCre×rosa26-flox-STOP-YFPx PTEN^flox/wt×SHIP-1^flox/wt×Ars/A1 to allow for the double haploinsufficiency of both PTEN and SHIP-1 within B cells.
2 hours before adoptive transfer, C57BL/6 recipient mice received 200 rads irradiation. […] B cells from donor mice were isolated via depletion of CD43+ cells with anti-CD43-conjugated magnetic beads (MACS anti-mouse CD43; Miltenyi Biotec). Alternatively, CD4+ T cells were isolated via CD4 positive selection (MACS anti-mouse CD4 (L3T4) Miltenyi Biotec). Resultant populations were >97% pure based on flow cytometric analyses. Donor B cells were labeled with either CellTrace Violet (Molecular Probes) or CFSE (Molecular Probes) at 5 μM for 5 minutes at room temperature prior to transfer. Donor CD4 T cells were labeled with CFSE (Molecular Probes) at 5 μM for 5 minutes at room temperature prior to transfer. 1-2×10^6 donor cells in 200 μl PBS were adoptively transferred via IV injection. 24 hours post transfer, tamoxifen was administered to activate Cre. Tamoxifen (Sigma-Aldrich) was dissolved in 100% corn oil (Sigma-Aldrich) at 20 mg/ml. Recipient mice were injected IP with 100 μl (2 mg) on two consecutive days.
Diet dose (DD) is calculated by multiplying the single daily dose (SD) by the body weight of a mouse (BW) and dividing that by the daily food intake (FI) [DD=(SD×BW)/FI].
For VH125.NOD experiments animals are placed on control chow immediately after weaning.
Spleens were mechanically disrupted, single-cell suspensions were generated, and red blood cells were lysed with ammonium chloride TRIS. Cells were resuspended in PBS containing 1% FBS and incubated with indicated antibodies. For analysis of cell surface markers, antibodies against the following molecules were used: B220-PE (BioLegend), B220-BV786 (BD Biosciences), B220-BV510 (BioLegend), CD4-BV711 (BioLegend), CD8-BV421 (BioLegend), CD138-PECy7 (BioLegend), CD69-BV786 (BD Biosciences), CD86-PerCPCy5.5 (BioLegend). After cell surface staining, the cells were fixed and permeabilized with Cytofix/Cytoperm (BD) per manufacturer's instructions and stained with Dylight650-E4 anti-Ars/A1 idiotype (produced and conjugated in our laboratory) OR HEL-650 (produced and conjugated in our laboratory) and Alexa Fluor 488-anti-GFP (rabbit polyclonal; Life Technologies). Events were collected on a CyAn ADP (Dako) and subsequent analysis using FlowJo software (Tree Star).
For detection of IgM^a anti-Ars antibodies, microtiter plates were coated with 10 μg/ml Ars-BSA16 in PBS and blocked with 2 mg/ml BSA in PBS 0.05% Tween-20. For detection of IgM^a anti-HEL antibodies, microtiter plates were coated with 10 μg/ml HEL in PBS and blocked with 2 mg/ml BSA in PBS 0.05% Tween-20. […]

[2] = test system: splenic B cells from C57BL/6 mice; experiment: BCR-mediated calcium flux in B cells; format: cell-based, mouse; conditions: 15 nM, 60 nM and 490 nM idelalisib added simultaneously with anti-Ig heavy and light chain F(ab′)2
Procedure: For measurements of intracellular free calcium concentration ([Ca^2+]i), RBC-depleted single-cell suspended splenocytes were simultaneously stained with CD8-PE (BD Biosciences), CD4-APC (BioLegend) or B220-PE and loaded with Indo-1 acetoxymethyl (Molecular Probes), as described previously (Gauld, et al., Nat Immunol 6: 1160-1167). For analysis of ([Ca^2+]i), cells were suspended at 10×10^6 cells/ml in warm IMDM+2% FBS in a 500 ul volume. […] Mean relative ([Ca^2+]i) was monitored over time using an LSR Fortessa X-20 (BD) with analysis using FlowJo software.

[3] = test system: AKT; experiment: phosphorylated signaling intermediaries after BCR stimulation: AKT; format: cell-based, mouse; conditions: all doses of inhibitor (15, 60, 490 nM), preincubation
Procedure: (§1) Cells are then washed 2× in serum free IMDM, and stimulated with 5 μg/ml of F(ab′)2 rabbit anti-mouse anti-IgG (H&L; Invitrogen) or 10 μg/ml anti-CD3-biotin (BD Biosciences)+20 μg/ml streptavidin (Sigma-Aldrich) for 2 minutes. Signaling was stopped by addition of 20% PFA to a final concentration of 2%, incubated at 37° C. for 15 minutes and resuspended in 100% ice-cold MeOH (directly from −80° C.). Cells were then placed on ice for 30 minutes and placed at −20° C. for storage. For analysis, cells were stained with B220-BV786, CD4-BV711, CD8-BV421, and/or pAKT-Alexa Fluor 647 (BD Biosciences), pPLCγ-PE (BD Biosciences), pBTK-BV421 (BD Biosciences) pSyk/Zap70-PE (BD Biosciences) at room temperature for 1 hour. Cells were washed 3 times and samples were acquired in triplicate on an LSR Fortessa X-20 (BD) with analysis using FlowJo software.

[4] = test system: PLCγ; experiment: phosphorylated signaling intermediaries after BCR stimulation: PLCγ; format: cell-based, mouse; conditions: all doses of inhibitor (15, 60, 490 nM), preincubation
Procedure: as §1

[5] = 0.9375 mg/kg, 3.75 mg/kg and 30 mg/kg chow, relative to vehicle control chow

CC[C@H](Nc1ncnc2nc[nH]c12)c1nc2cccc(F)c2c(=O)n1-c1ccccc1 [idelalisib, 5-fluoro-3-phenyl-2-[(1S)-1-(7H-purin-6-ylamino)propyl]-4(3H)-quinazolinone]
number of autoreactive ASCs/spleen ([1]; 0.9375 mg/kg and 3.75 mg/kg chow): significantly reduced
serum autoantibody (IgM^a anti-Ars) ([1]; 0.9375 mg/kg, 3.75 mg/kg and 30 mg/kg chow, day 14, relative to untreated controls): significantly decreased
plasmablast differentiation as measured by CD138 positivity [1, 5]: significantly decreased
proliferation of transferred B cells [1, 5]: significantly decreased
number of autoreactive ASCs/spleen ([1]; 30 mg/kg chow): undetected
total Ars/A1 idiotype+ YFP+ B cells in the spleens (recovery of transferred cells) ([1]; day 14 post transfer, regardless of treatment): no significant difference
calcium mobilization [2]: suppressed
phosphorylation of AKT [3]: significantly reduced
phosphorylation of PLCγ [4]: significantly reduced
